Results published in patent US10634665B2 (priority 2014, dated 2020).

Test system: BEAS-2B epithelium
Assay: Drug toxicity test in bronchiolar device (LDH release)
Assay type: cell-based
Settings: 0.1, 1.0 and 10 μM in BEGM medium, recirculating 10 μL/min, 48 hours, bronchiolar device of FIG. 27; FIG. 95A
Experimental: FIGS. 95A-95D show drug toxicity results obtained from using a bronchiolar device embodiment described herein; FIG. 95A is a graph of camptothecin concentration (μM) vs. cytotoxicity (% LDH release) illustrating the cytotoxicity of camptothecin as measured after having passed through the bronchiolar device; […] show images of fluorescent microbead deposition on a central lumen associated with cells.
Drug toxicity was tested using a bronchiolar device as described herein. A pro-apoptotic anti-cancer drug, camptothecin, was chosen to monitor drug toxicity in the bronchiolar device illustrated in FIG. 27. Different concentrations of camptothecin (0.1, 1.0 and 10 μM) were prepared by diluting the original stock solution (2 mg/mL in DMSO) with BEGM culturing medium. After the lumen of a hollow tube of the device was covered with BEAS-2B epithelium, medium in the medium reservoir (which was connected to a maintaining system) was replaced with individual concentrations of the camptothecin medium solution to allow the circulating flow into medium chamber of device. The tubing connected to hollow tube was closed and the recirculating flow rate was set to 10 μL/min to allow camptothecin to diffuse into the bronchiolar epithelium for 48 hours.

CC[C@@]1(O)C(=O)OCc2c1cc1n(c2=O)Cc2cc3ccccc3nc2-1 [camptothecin]
cytotoxicity (% LDH release) versus camptothecin concentration: drug dose dependence was observed
